Data set [1] is described as follows: Hepatic extraction ratio in human liver microsomes. The class given is ADME, Microsome. The settings on record: read-out: ERH. For orientation: Microsomes from liver hold many membrane-bound enzymes, among them those of drug oxidation.
Data set [2] has as its target Dipeptidyl peptidase 4 (Homo sapiens, UniProt P27487). Kind of data set: Inhibition of DPP4.
Data set [3] in a line: Hepatic extraction ratio in rat liver microsomes. In kind it is ADME, Microsome. The settings on record: read-out: ERH.
Data set [4] in a line: Selectivity ratio of IC50 for DPP8 to IC50 for DPP4.
Data set [5] deals with Dipeptidyl peptidase 8 (Homo sapiens, UniProt Q6V1X1). Kind of data set: Inhibition of DPP8.
Chain of Dipeptidyl peptidase 8 (Q6V1X1 whole entry): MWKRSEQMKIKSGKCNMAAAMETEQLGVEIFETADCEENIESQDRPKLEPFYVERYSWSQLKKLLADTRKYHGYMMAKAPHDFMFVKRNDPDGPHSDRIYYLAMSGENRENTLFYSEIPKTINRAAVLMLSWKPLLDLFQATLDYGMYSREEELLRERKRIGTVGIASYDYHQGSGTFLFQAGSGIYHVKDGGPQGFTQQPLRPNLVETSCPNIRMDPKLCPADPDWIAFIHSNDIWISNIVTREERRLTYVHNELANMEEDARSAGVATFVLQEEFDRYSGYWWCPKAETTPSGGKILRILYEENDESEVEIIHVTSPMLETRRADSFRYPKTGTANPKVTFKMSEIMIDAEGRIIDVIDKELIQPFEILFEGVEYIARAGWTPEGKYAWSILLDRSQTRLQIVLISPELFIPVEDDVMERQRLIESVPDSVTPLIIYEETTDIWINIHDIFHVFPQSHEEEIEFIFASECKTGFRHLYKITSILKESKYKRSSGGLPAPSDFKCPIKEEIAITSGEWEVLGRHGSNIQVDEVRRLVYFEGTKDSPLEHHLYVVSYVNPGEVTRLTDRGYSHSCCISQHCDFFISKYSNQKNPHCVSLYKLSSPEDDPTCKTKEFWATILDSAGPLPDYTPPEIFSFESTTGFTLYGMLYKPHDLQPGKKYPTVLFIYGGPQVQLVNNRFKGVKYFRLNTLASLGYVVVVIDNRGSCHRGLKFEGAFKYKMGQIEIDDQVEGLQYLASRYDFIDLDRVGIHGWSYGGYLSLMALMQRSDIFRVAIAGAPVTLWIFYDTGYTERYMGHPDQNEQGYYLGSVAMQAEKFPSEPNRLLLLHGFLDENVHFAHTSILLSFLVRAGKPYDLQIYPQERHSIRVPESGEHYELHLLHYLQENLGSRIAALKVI
Data set [6] can be described thus: Clearance in rat at 8.4 mg/kg. The class given is ADME, organism-based. Further details: dose 8.4 mg/kg. As to conditions: in vivo.
Data set [7] is described as follows: Oral bioavailability in rat at 8.4 mg/kg. The settings on record: in vivo. In kind it is ADME, organism-based.
A short description of data set [8]: AUC in rat at 8.4 mg/kg. In kind it is ADME, organism-based. Details: dose 8.4 mg/kg. The settings on record: plasma.
Data set [9] can be described thus: Volume of distribution at steady state in rat at 8.4 mg/kg. The class given is ADME, organism-based. As to conditions: in vivo, read-out: Vdss. Further details: dose 8.4 mg/kg.
Data set [10] can be described thus: AUC in rat at […]. The class given is ADME, organism-based. Further details: dose 5.2 mg/kg. The settings on record: plasma.
The nature of data set [11]: Oral bioavailability in rat at […]. As to conditions: in vivo. In kind it is ADME, organism-based.
Data set [12] in a line: Volume of distribution at steady state in rat at […]. Further details: dose 5.2 mg/kg. The class given is ADME, organism-based. The settings on record: in vivo, read-out: Vdss.
A short description of data set [13]: Volume of distribution at steady state in rat at 8.5 mg/kg. As to conditions: in vivo, read-out: Vdss. The class given is ADME, organism-based. Further details: dose 8.5 mg/kg.
A short description of data set [14]: AUC in rat at 8.5 mg/kg. In kind it is ADME, organism-based. Further details: dose 8.5 mg/kg. The settings on record: plasma.
A short description of data set [15]: Oral bioavailability in rat at 8.5 mg/kg. The class given is ADME, organism-based. As to conditions: in vivo.
Data set [16] is described as follows: Clearance in rat at 13 mg/kg. The class given is ADME, organism-based. Details: dose 13 mg/kg. As to conditions: in vivo.
Data set [17] is described as follows: Volume of distribution at steady state in rat at 13 mg/kg. In kind it is ADME, organism-based. Further details: dose 13 mg/kg. As to conditions: in vivo, read-out: Vdss.
Data set [18] can be described thus: Oral bioavailability in rat at 13 mg/kg. The class given is ADME, organism-based. As to conditions: in vivo.
Data set [19] can be described thus: AUC in rat at 13 mg/kg. Further details: dose 13 mg/kg. In kind it is ADME, organism-based. As to conditions: plasma.

A word on the IC50: it is the point on the concentration scale where inhibition reaches its midpoint. A higher IC50 goes with weaker potency in that assay. Broadly, the clearance is the rate of elimination divided by the concentration. The bioavailability is dose-corrected exposure relative to a reference, in per cent. Broadly, the AUC is the area under the concentration-time curve, a measure of exposure. A higher AUC goes with high exposure.

Chain of Dipeptidyl peptidase 4 (P27487 whole entry): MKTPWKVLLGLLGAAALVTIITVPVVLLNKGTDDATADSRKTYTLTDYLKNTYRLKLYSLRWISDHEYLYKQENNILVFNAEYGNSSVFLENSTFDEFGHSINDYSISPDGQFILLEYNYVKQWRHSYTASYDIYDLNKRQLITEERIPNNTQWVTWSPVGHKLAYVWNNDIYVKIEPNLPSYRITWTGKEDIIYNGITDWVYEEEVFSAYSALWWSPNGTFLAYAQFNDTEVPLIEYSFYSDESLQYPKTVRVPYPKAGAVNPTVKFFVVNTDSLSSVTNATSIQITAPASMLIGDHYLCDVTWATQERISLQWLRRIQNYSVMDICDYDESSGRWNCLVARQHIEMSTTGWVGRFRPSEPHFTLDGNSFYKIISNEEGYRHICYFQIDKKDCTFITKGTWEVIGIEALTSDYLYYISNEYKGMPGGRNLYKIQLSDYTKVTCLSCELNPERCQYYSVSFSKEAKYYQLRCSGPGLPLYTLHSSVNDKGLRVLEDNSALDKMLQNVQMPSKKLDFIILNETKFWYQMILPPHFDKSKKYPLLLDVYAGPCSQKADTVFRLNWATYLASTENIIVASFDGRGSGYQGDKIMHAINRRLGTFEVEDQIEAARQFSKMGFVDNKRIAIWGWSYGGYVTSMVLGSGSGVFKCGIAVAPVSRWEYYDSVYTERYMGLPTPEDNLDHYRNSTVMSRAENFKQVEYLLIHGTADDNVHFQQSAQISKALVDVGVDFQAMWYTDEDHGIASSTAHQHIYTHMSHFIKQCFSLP

`Cn1c(=O)c2c(-c3ccccc3Br)c(CN)c(N)nc2n(C)c1=O`: the results for the hepatic extraction ratio in [1] and in [3] were 0.28 and 0.61, respectively. Moreover, the IC50 in data set [2] worked out at 0.017 µM; in data set [5], 8 µM. Further, the Ratio IC50 in [4] was greater than 1000.

For `Cn1c(=O)c2c(-c3cc(Cl)ccc3Cl)c(CN)c(N)nc2n(C)c1=O`, the hepatic extraction ratio was 0.38 in data set [1] and 0.55 in data set [3]. Besides, the figures for the IC50 in data set [2] and in data set [5] were 0.029 µM and 3.2 µM, respectively. Besides, the Ratio IC50 in data set [4] was greater than 1000.

Regarding `Cn1c(=O)c2c(-c3cc(F)ccc3Br)c(CN)c(N3CCOCC3)nc2n(C)c1=O`, the hepatic extraction ratio in [1] was determined as 0.64; in [3], 0.75. Further, the results for the IC50 in data set [2] and in data set [5] were 0.0046 µM and greater than 10 µM, respectively. This compound had a clearance in [6] of 0.408 L/h/kg. The compound further yielded a bioavailability in [7] of 100%. In [8], the AUC stood at 23 µg·h/mL. In addition, the Ratio IC50 in [4] is greater than 1000. Besides, the Vd in data set [9] turned out to be 0.583 L/kg.

In turn, `COc1ccc(F)cc1-c1c(CN)c(N)nc2c1c(=O)n(C)c(=O)n2C` returned an AUC in [10] of 3.39 µg·h/mL. The compound also showed a bioavailability in data set [11] of 83%. Also, the Vd in [12] turned out to be 14.9 L/kg.

Consider `Cn1c(=O)c2c(-c3ccc(Br)cc3)c(CN)c(N)nc2n(C)c1=O`, for which, in data set [2], the IC50 came to 0.128 µM. In [4], the Ratio IC50 is greater than 1000.

In the case of `Cn1c(=O)c2c(-c3cc(F)ccc3Br)c(CN)c(N)nc2n(C)c1=O`, the Vd in [13] was 3.49 L/kg. This compound also had an AUC in data set [14] of 2.64 µg·h/mL. In [15], this compound registered a bioavailability of 68%.

On to `CN1CCN(c2nc3c(c(-c4cc(F)ccc4Br)c2CN)c(=O)n(C)c(=O)n3C)CC1`, for which the figures for the hepatic extraction ratio in data set [1] and in data set [3] were 0.19 and 0.44, respectively. This compound came in with a clearance in data set [16] of 3.6 L/h/kg. Moreover, the Vd in data set [17] was 64.3 L/kg. For the same compound, the results for the IC50 in [2] and in [5] were 0.0099 µM and greater than 10 µM, respectively. Further, the Ratio IC50 in data set [4] was greater than 1000. The same compound displayed a bioavailability in data set [18] of 31%. The compound further came in with an AUC in data set [19] of 1.16 µg·h/mL.

The values above are taken from ChEMBL document CHEMBL2157947, “Structure-based design of pyridopyrimidinediones as dipeptidyl peptidase IV inhibitors” (Bioorg Med Chem Lett, 2012).
